In patent publication US20230111310A1, “CARBOXYLIC ACID DERIVATIVE-SUBSTITUTED IMINO ARYL COMPOUND, PREPARATION METHOD THEREFOR, HERBICIDAL COMPOSITION AND USE THEREOF” (Qingdao Kingagroot Chemical Compound Co., Ltd., priority 2020, published 2023):

Experiments:
Experiment in all cases: Weeding effect in post-emergence stage
Assay type in all cases: in vivo
[1] = test system: Echinochloa crusgalli; conditions: for Weeding effect in post-emergence stage, Echinochloa crusgalli: level of fresh weight growth control rate; for Weeding effect in post-emergence stage, Echinochloa crusgalli (level): fresh weight control rate level
Summary of the method: (§1)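 Post-emergence spray tower; 2-3 leaf plants (2 wk after sowing, soil pots, greenhouse). Formulation: acetone, Tween 80, methyl oleate EC 1.5 liter/ha as synergist, water. Rates 500–7.5 g/ha. Growth control rate read at 3 wk; n=3, averaged.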

[2] = test system: Digitaria sanguinalis; conditions: for Weeding effect in post-emergence stage, Digitaria sanguinalis: level of fresh weight growth control rate; for Weeding effect in post-emergence stage, Digitaria sanguinalis (level): fresh weight control rate level
Summary of the method: as §1

[3] = test system: Abutilon theophrasti; conditions: for Weeding effect in post-emergence stage, Abutilon theophrasti: level of fresh weight growth control rate; for Weeding effect in post-emergence stage, Abutilon theophrasti (level): fresh weight control rate level
Summary of the method: as §1

[4] = test system: Setaria viridis; conditions: for Weeding effect in post-emergence stage, Setaria viridis: level of fresh weight growth control rate; for Weeding effect in post-emergence stage, Setaria viridis (level): fresh weight control rate level
Summary of the method: as §1

[5] = test system: Eleusine indica; conditions: for Weeding effect in post-emergence stage, Eleusine indica: level of fresh weight growth control rate; for Weeding effect in post-emergence stage, Eleusine indica (level): fresh weight control rate level
Summary of the method: as §1

[6] = test system: Alopecurus japonicus; conditions: for Weeding effect in post-emergence stage, Alopecurus japonicus: level of fresh weight growth control rate; for Weeding effect in post-emergence stage, Alopecurus japonicus (level): fresh weight control rate level
Summary of the method: as §1

| SMILES | Weeding effect in post-emergence stage, Echinochloa crusgalli ([1]; Dose 15 g/ha) | Weeding effect in post-emergence stage, Digitaria sanguinalis ([2]; Dose 15 g/ha) | Weeding effect in post-emergence stage, Abutilon theophrasti ([3]; Dose 15 g/ha) | Weeding effect in post-emergence stage, Setaria viridis ([4]; Dose 15 g/ha) | Weeding effect in post-emergence stage, Eleusine indica ([5]; Dose 15 g/ha) | Weeding effect in post-emergence stage, Alopecurus japonicus ([6]; Dose 15 g/ha) | also measured |
| --- | --- | --- | --- | --- | --- | --- | --- |
| CC(=O)COC(=O)C(C)O/N=C/c1cc(-n2c(=O)cc(C(F)(F)F)n(C)c2=O)c(F)cc1Cl (stereo not drawn) [Compound 238] | 5 (Level 5: growth control rate is above 85%) | 5 (Level 5: growth control rate is above 85%) | 5 (Level 5: growth control rate is above 85%) | 5 (Level 5: growth control rate is above 85%) | 5 (Level 5: growth control rate is above 85%) | 5 (Level 5: growth control rate is above 85%) |  |
| CCCOC(=O)C(C)O/N=C/c1cc(-n2c(=O)cc(C(F)(F)F)n(C)c2=O)c(F)cc1Cl (racemic) [Compound 198] | 5 (Level 5: growth control rate is above 85%) | 5 (Level 5: growth control rate is above 85%) | 5 (Level 5: growth control rate is above 85%) | 5 (Level 5: growth control rate is above 85%) | 5 (Level 5: growth control rate is above 85%) | 5 (Level 5: growth control rate is above 85%) |  |
| COC(=O)C(C)O/N=C/c1cc(-n2c(=O)n(C)c(=O)n(C)c2=O)c(F)cc1Cl (racemic) [Compound 164] | 5 (Level 5: growth control rate is above 85%) | 5 (Level 5: growth control rate is above 85%) | 5 (Level 5: growth control rate is above 85%) | 5 (Level 5: growth control rate is above 85%) | 5 (Level 5: growth control rate is above 85%) | 5 (Level 5: growth control rate is above 85%) |  |
| CCCOC(=O)C(C)O/N=C/c1cc(-n2c(=O)n(C)c(=S)n(C)c2=O)c(F)cc1Cl (racemic) [Compound 4] | 5 (Level 5: growth control rate is above 85%) | 5 (Level 5: growth control rate is above 85%) | 5 (Level 5: growth control rate is above 85%) | 5 (Level 5: growth control rate is above 85%) | 5 (Level 5: growth control rate is above 85%) | 5 (Level 5: growth control rate is above 85%) |  |
| CCOC(=O)C(C)O/N=C/c1cc(-n2c(=O)n(C)c(=S)n(C)c2=S)c(F)cc1Br (racemic) [Compound 161] | 5 (Level 5: growth control rate is above 85%) | 4 (Level 4: growth control rate is greater than or equal to 60% and less than 85%) | 5 (Level 5: growth control rate is above 85%) | 5 (Level 5: growth control rate is above 85%) | 5 (Level 5: growth control rate is above 85%) | 4 (Level 4: growth control rate is greater than or equal to 60% and less than 85%) |  |
| CC(O/N=C/c1cc(-n2c(=O)cc(C(F)(F)F)n(C)c2=O)c(F)cc1Cl)C(=O)ON=C1CCCC1 (stereo not drawn) [Compound 258] | 5 (Level 5: growth control rate is above 85%) | 5 (Level 5: growth control rate is above 85%) | 5 (Level 5: growth control rate is above 85%) | 5 (Level 5: growth control rate is above 85%) | 5 (Level 5: growth control rate is above 85%) | 4 (Level 4: growth control rate is greater than or equal to 60% and less than 85%) |  |
| COC(=O)CCNC(=O)C(C)O/N=C/c1cc(-n2c(=O)n(C)c(=S)n(C)c2=O)c(F)cc1Cl (racemic) [Compound 183] | 5 (Level 5: growth control rate is above 85%) | 5 (Level 5: growth control rate is above 85%) | 5 (Level 5: growth control rate is above 85%) | 5 (Level 5: growth control rate is above 85%) | 5 (Level 5: growth control rate is above 85%) | 5 (Level 5: growth control rate is above 85%) |  |
| COC(=O)C(C)NN=Cc1cc(-n2c(=O)n(C)c(=S)n(C)c2=O)c(F)cc1Cl (stereo not drawn) [Compound 881] |  |  |  |  |  |  | Weeding effect in post-emergence stage, Echinochloa crusgalli (level) ([1]; Dose 30 g/ha): 5 (Level 5: growth control rate is above 85%); Weeding effect in post-emergence stage, Digitaria sanguinalis (level) ([2]; Dose 30 g/ha): 5 (Level 5: growth control rate is above 85%); Weeding effect in post-emergence stage, Abutilon theophrasti (level) ([3]; Dose 30 g/ha): 5 (Level 5: growth control rate is above 85%); Weeding effect in post-emergence stage, Setaria viridis (level) ([4]; Dose 30 g/ha): 5 (Level 5: growth control rate is above 85%); Weeding effect in post-emergence stage, Eleusine indica (level) ([5]; Dose 30 g/ha): 5 (Level 5: growth control rate is above 85%); Weeding effect in post-emergence stage, Alopecurus japonicus (level) ([6]; Dose 30 g/ha): 5 (Level 5: growth control rate is above 85%) |
| CC(C#N)COC(=O)C(C)O/N=C/c1cc(-n2c(=O)cc(C(F)(F)F)n(C)c2=O)c(F)cc1Cl (stereo not drawn) [Compound 445] |  |  |  |  |  |  | Weeding effect in post-emergence stage, Echinochloa crusgalli (level) ([1]; Dose 15 g/ha): 5 (Level 5: growth control rate is above 85%); Weeding effect in post-emergence stage, Digitaria sanguinalis (level) ([2]; Dose 15 g/ha): 5 (Level 5: growth control rate is above 85%); Weeding effect in post-emergence stage, Abutilon theophrasti (level) ([3]; Dose 15 g/ha): 5 (Level 5: growth control rate is above 85%); Weeding effect in post-emergence stage, Setaria viridis (level) ([4]; Dose 15 g/ha): 5 (Level 5: growth control rate is above 85%); Weeding effect in post-emergence stage, Eleusine indica (level) ([5]; Dose 15 g/ha): 5 (Level 5: growth control rate is above 85%); Weeding effect in post-emergence stage, Alopecurus japonicus (level) ([6]; Dose 15 g/ha): 5 (Level 5: growth control rate is above 85%) |
| COC(=O)C(C)O/N=C/c1cc(-n2c(=O)n(C)c(=S)n(C)c2=S)c(F)cc1Cl (racemic) [Compound 124] | 5 (Level 5: growth control rate is above 85%) | 5 (Level 5: growth control rate is above 85%) | 5 (Level 5: growth control rate is above 85%) | 5 (Level 5: growth control rate is above 85%) | 5 (Level 5: growth control rate is above 85%) | 4 (Level 4: growth control rate is greater than or equal to 60% and less than 85%) |  |
| COC(=O)C(C)O/N=C/c1cc(-n2c(=O)n(C)c(=S)n(C)c2=O)c(F)cc1Br (stereo not drawn) [Compound 83] | 5 (Level 5: growth control rate is above 85%) | 4 (Level 4: growth control rate is greater than or equal to 60% and less than 85%) | 5 (Level 5: growth control rate is above 85%) | 5 (Level 5: growth control rate is above 85%) | 5 (Level 5: growth control rate is above 85%) | 4 (Level 4: growth control rate is greater than or equal to 60% and less than 85%) |  |
| C[C@@H](O/N=C/c1cc(-n2c(=O)cc(C(F)(F)F)n(C)c2=O)c(F)cc1Cl)C(=O)O [193(R)] | 5 (Level 5: growth control rate is above 85%) | 5 (Level 5: growth control rate is above 85%) | 5 (Level 5: growth control rate is above 85%) | 5 (Level 5: growth control rate is above 85%) | 5 (Level 5: growth control rate is above 85%) | 5 (Level 5: growth control rate is above 85%) |  |
| COC(=O)C(OC)O/N=C/c1cc(-n2c(=O)cc(C(F)(F)F)n(C)c2=O)c(F)cc1Cl (stereo not drawn) [Compound 321] |  |  |  |  |  |  | Weeding effect in post-emergence stage, Echinochloa crusgalli ([1]; Dose 120 g/ha): 5 (Level 5: growth control rate is above 85%); Weeding effect in post-emergence stage, Digitaria sanguinalis ([2]; Dose 120 g/ha): 5 (Level 5: growth control rate is above 85%); Weeding effect in post-emergence stage, Abutilon theophrasti ([3]; Dose 120 g/ha): 5 (Level 5: growth control rate is above 85%); Weeding effect in post-emergence stage, Setaria viridis ([4]; Dose 120 g/ha): 5 (Level 5: growth control rate is above 85%); Weeding effect in post-emergence stage, Eleusine indica ([5]; Dose 120 g/ha): 5 (Level 5: growth control rate is above 85%); Weeding effect in post-emergence stage, Alopecurus japonicus ([6]; Dose 120 g/ha): 5 (Level 5: growth control rate is above 85%) |
| CC(CC#N)OC(=O)C(C)O/N=C/c1cc(-n2c(=O)cc(C(F)(F)F)n(C)c2=O)c(F)cc1Cl (stereo not drawn) [Compound 444] |  |  |  |  |  |  | Weeding effect in post-emergence stage, Echinochloa crusgalli (level) ([1]; Dose 15 g/ha): 5 (Level 5: growth control rate is above 85%); Weeding effect in post-emergence stage, Digitaria sanguinalis (level) ([2]; Dose 15 g/ha): 5 (Level 5: growth control rate is above 85%); Weeding effect in post-emergence stage, Abutilon theophrasti (level) ([3]; Dose 15 g/ha): 5 (Level 5: growth control rate is above 85%); Weeding effect in post-emergence stage, Setaria viridis (level) ([4]; Dose 15 g/ha): 5 (Level 5: growth control rate is above 85%); Weeding effect in post-emergence stage, Eleusine indica (level) ([5]; Dose 15 g/ha): 5 (Level 5: growth control rate is above 85%); Weeding effect in post-emergence stage, Alopecurus japonicus (level) ([6]; Dose 15 g/ha): 5 (Level 5: growth control rate is above 85%) |
| CC(O/N=C/c1cc(-n2c(=O)cc(C(F)(F)F)n(C)c2=O)c(F)cc1Cl)C(=O)OCc1ccc(F)cc1 (stereo not drawn) [Compound 286] |  |  |  |  |  |  | Weeding effect in post-emergence stage, Echinochloa crusgalli ([1]; Dose 30 g/ha): 5 (Level 5: growth control rate is above 85%); Weeding effect in post-emergence stage, Digitaria sanguinalis ([2]; Dose 30 g/ha): 5 (Level 5: growth control rate is above 85%); Weeding effect in post-emergence stage, Abutilon theophrasti ([3]; Dose 30 g/ha): 5 (Level 5: growth control rate is above 85%); Weeding effect in post-emergence stage, Setaria viridis ([4]; Dose 30 g/ha): 5 (Level 5: growth control rate is above 85%); Weeding effect in post-emergence stage, Eleusine indica ([5]; Dose 30 g/ha): 5 (Level 5: growth control rate is above 85%); Weeding effect in post-emergence stage, Alopecurus japonicus ([6]; Dose 30 g/ha): 5 (Level 5: growth control rate is above 85%) |
